These results are taken from ChEMBL document CHEMBL4706551, “Rational design of new multitarget histamine H receptor ligands as potential candidates for treatment of Alzheimer's disease” (Eur J Med Chem, 2020).

Data set [1] has as its target T1, Amine oxidase [flavin-containing] B (Homo sapiens, UniProt P27338).
T1 sequence (P27338 whole entry): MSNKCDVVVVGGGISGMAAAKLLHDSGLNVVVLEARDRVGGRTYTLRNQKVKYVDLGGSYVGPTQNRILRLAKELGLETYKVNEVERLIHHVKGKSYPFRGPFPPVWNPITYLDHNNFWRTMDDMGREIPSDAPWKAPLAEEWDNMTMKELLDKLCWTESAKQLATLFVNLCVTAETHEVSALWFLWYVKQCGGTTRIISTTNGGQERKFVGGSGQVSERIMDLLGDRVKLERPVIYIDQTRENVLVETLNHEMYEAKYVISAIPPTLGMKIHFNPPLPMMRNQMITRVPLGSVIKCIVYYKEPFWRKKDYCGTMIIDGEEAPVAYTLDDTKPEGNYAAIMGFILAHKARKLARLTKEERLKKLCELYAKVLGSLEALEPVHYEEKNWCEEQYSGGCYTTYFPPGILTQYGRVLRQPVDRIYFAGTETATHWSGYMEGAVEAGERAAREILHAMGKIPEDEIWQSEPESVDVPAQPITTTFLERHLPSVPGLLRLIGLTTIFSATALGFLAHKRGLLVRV
The data set can be described thus: biochemical. It is filed as cell-based, BTI.
Description: Inhibition of recombinant human MAO-B expressed in baculovirus infected BTI cells using p-tyramine as substrate by fluorometric assay

Data set [2] addresses T2, MAO-A (Homo sapiens, UniProt P21397).
T2 sequence (P21397 whole entry): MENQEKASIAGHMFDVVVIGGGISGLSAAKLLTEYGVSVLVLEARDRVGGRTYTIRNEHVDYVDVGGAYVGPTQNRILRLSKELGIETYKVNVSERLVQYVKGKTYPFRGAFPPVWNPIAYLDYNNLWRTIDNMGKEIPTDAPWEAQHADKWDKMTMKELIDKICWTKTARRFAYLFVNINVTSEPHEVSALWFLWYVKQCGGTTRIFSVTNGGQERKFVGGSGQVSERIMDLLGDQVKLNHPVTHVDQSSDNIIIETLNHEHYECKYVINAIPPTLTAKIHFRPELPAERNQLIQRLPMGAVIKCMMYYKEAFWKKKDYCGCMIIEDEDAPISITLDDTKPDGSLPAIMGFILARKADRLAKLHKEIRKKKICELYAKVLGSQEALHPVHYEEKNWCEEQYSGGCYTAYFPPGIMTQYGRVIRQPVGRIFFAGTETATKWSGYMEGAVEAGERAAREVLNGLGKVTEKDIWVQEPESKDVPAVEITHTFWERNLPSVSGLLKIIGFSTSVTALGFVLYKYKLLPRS
The data set is described as follows: Inhibition of recombinant human MAO-A expressed in baculovirus infected BTI cells at 10 uM using p-tyramine as substrate by fluorometric assay relative to control. Conditions: probe p-tyramine.

The target in data set [3] is Acetylcholinesterase (Electrophorus electricus, UniProt O42275).
Description: Inhibition of Electric eel AChE using ATCI as substrate incubated for 5 mins followed by substrate addition and measured after 5 mins by spectrophotometric based Ellman's method
Data set [4] concerns the target Cholinesterase (Equus caballus, UniProt P81908).
Description: Inhibition of equine serum BChE using BTCI as substrate incubated for 5 mins followed by substrate addition and measured after 5 mins by spectrophotometric based Ellman's method
Data set [5] concerns the target T2, MAO-A. The data set can be described thus: in vitro. Conditions: probe p-tyramine.
Description: Inhibition of recombinant human MAO-A expressed in baculovirus infected BTI cells at 1 uM using p-tyramine as substrate by fluorometric assay relative to control
Data set [6] has as its target Histamine H3 receptor (Homo sapiens, UniProt Q9Y5N1). The data set can be described thus: biochemical.
Description: Displacement of [3H]N-alpha-methylhistamine from recombinant human histamine H3 receptor expressed in CHO-K1 cells by microbeta scintillation analysis

Some results are limits rather than exact numbers.

Chain of Cholinesterase (P81908 whole entry): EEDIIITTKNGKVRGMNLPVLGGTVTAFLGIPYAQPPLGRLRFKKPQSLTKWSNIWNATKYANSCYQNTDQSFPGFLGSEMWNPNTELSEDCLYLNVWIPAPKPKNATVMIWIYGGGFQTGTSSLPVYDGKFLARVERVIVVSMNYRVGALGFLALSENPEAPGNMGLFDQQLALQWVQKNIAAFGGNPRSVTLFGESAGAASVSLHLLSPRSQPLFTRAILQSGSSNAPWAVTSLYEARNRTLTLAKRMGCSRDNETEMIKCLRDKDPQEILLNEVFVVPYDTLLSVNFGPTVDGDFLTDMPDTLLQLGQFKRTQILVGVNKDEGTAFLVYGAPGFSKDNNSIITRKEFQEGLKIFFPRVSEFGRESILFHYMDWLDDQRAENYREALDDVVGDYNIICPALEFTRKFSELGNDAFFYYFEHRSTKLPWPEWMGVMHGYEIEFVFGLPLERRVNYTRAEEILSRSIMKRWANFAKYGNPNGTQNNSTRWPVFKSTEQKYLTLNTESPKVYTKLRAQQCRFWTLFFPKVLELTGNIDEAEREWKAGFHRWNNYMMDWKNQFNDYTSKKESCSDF
Chain of Histamine H3 receptor (Q9Y5N1 whole entry): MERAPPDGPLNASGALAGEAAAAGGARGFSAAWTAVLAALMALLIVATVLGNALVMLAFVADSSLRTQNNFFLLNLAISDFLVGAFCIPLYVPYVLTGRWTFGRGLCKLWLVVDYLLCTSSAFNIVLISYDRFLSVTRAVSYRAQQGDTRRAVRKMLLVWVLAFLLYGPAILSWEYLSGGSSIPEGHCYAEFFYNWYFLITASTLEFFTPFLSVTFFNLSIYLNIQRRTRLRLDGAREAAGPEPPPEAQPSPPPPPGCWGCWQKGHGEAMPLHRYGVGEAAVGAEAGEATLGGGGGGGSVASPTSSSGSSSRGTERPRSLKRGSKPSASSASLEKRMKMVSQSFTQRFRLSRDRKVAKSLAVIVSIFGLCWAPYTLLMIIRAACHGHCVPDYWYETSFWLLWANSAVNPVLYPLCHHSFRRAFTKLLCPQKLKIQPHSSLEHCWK
Chain of Acetylcholinesterase (O42275 whole entry): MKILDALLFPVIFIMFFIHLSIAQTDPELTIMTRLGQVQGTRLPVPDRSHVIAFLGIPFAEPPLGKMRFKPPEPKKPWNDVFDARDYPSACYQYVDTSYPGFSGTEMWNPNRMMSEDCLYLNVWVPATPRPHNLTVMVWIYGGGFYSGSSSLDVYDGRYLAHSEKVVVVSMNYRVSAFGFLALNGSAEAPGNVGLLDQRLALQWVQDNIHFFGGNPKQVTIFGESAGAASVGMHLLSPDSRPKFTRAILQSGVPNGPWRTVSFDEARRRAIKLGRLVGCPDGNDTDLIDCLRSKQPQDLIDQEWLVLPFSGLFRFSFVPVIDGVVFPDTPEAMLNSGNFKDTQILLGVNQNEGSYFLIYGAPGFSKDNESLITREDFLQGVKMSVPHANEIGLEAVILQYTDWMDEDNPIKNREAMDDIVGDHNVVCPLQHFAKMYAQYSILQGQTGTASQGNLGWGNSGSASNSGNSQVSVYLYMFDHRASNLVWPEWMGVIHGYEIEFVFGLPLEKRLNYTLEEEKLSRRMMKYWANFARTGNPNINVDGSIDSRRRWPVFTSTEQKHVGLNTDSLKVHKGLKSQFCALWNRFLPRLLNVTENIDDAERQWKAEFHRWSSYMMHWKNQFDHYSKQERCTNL

Take `CC1CCCN(CCCCCCOc2ccc3oc4ccccc4c(=O)c3c2)C1` (stereo not drawn): the results for the IC50 in data set [1], in data set [3] and in data set [4] were 1.55 µM, 0.387 µM and 1.15 µM, respectively. In addition, the inhibition at 10 µM in data set [2] was less than 50%. The same molecule gave an inhibition at 1 µM in data set [5] of 4%. Also, affinity in data set [6] was put at a Ki of 0.1 µM.

Turning to `CC1CCCN(CCCCCCOc2ccc3oc4cc(Cl)ccc4c(=O)c3c2)C1` (stereo not drawn), the IC50 in data set [1] was 1.83 µM; in data set [3], 0.384 µM; in data set [4], 2.04 µM. Also, the inhibition at 10 µM in data set [2] was less than 50%. Moreover, in data set [5], the inhibition at 1 µM came out at 42%. The same molecule gave a Ki in data set [6] of 1.1 µM.

For `O=c1c2cc(Cl)ccc2oc2ccc(OCCCCCCN3CCCCCC3)cc12`, the concentration for half-maximal inhibition (IC50) in data set [1] was found to be 1.39 µM; in data set [3], 0.27 µM; in data set [4], 0.545 µM. For the same molecule, the inhibition at 10 µM in data set [2] is less than 50%. The molecule also displayed an inhibition at 1 µM in data set [5] of 23%. Also, the Ki in data set [6] was 0.238 µM.

For `O=c1c2cc(Cl)ccc2oc2ccc(OCCCCCN3CCCCC3)cc12`, the IC50 in data set [1] came to 0.756 µM; in data set [3] it was 0.238 µM; in data set [4], 0.983 µM. Also, the inhibition at 10 µM in data set [2] is less than 50%. This molecule also had an inhibition at 1 µM in data set [5] of 5%. For the same molecule, in data set [6], the Ki was determined as 0.15 µM.

In the case of `CC1CCN(CCCCCOc2ccc3oc4ccccc4c(=O)c3c2)CC1`, the IC50 turned out to be 1.86 µM in data set [1], 0.697 µM in data set [3] and 1.09 µM in data set [4]. For the same molecule, the inhibition at 10 µM in data set [2] is less than 50%. This molecule returned an inhibition at 1 µM in data set [5] of 1%. For the same molecule, the affinity in data set [6], expressed as Ki, was 0.11 µM.

`O=c1c2cc(Cl)ccc2oc2ccc(OCCCCCCN3CCCCC3)cc12`: the IC50 was determined as 1.82 µM in data set [1], 0.62 µM in data set [3] and 0.954 µM in data set [4]. In addition, the inhibition at 10 µM in data set [2] was less than 50%. Further, in data set [5], the inhibition at 1 µM is 8%. This molecule had an inhibitory constant (Ki) in data set [6] of 0.282 µM.

Turning to `Clc1ccc(CCCOCCCN2CCCCC2)cc1` [PITOLISANT], in data set [5], the inhibition at 1 µM came out at 9%.

Consider `CC1CCN(CCCCCCOc2ccc3oc4ccc(Cl)cc4c(=O)c3c2)CC1`, for which the results for the IC50 in data set [1], in data set [3] and in data set [4] were 0.72 µM, 0.525 µM and 0.899 µM, respectively. Further, the inhibition at 10 µM in data set [2] was less than 50%. The molecule also showed an inhibition at 1 µM in data set [5] of 28%. In addition, in data set [6], the Ki is 0.465 µM.

As to `CC1CCN(CCCCCCOc2ccc3oc4cc(Cl)ccc4c(=O)c3c2)CC1`, the IC50 was 1.64 µM in data set [1], 0.561 µM in data set [3] and 1.51 µM in data set [4]. Moreover, the inhibition at 10 µM in data set [2] was less than 50%. This molecule also came in with an inhibition at 1 µM in data set [5] of 37%. This molecule came in with a Ki in data set [6] of 0.52 µM.

With `CC1CCCN(CCCCCOc2ccc3oc4ccccc4c(=O)c3c2)C1` (stereo not drawn), the IC50 in data set [1] is 4.2 µM; in data set [3], 0.342 µM; in data set [4], 0.978 µM. The inhibition at 10 µM in data set [2] is less than 50%. In addition, testing at 1 µM in data set [5] gave an inhibition of 1%. In data set [6], this molecule returned a Ki of 0.156 µM.

Turning to `O=c1c2ccccc2oc2ccc(OCCCCCN3CCCCC3)cc12`, the values for the IC50 in data set [1], in data set [3] and in data set [4] were 1.5 µM, 0.622 µM and 2.54 µM, respectively. In addition, in data set [2], the inhibition at 10 µM was less than 50%. In data set [5], this molecule came in with an inhibition at 1 µM of 6%. The Ki in data set [6] was determined as 0.172 µM.

As to `CC1CCCN(CCCCCOc2ccc3oc4ccc(Cl)cc4c(=O)c3c2)C1` (stereo not drawn), the results for the half-inhibitory concentration (IC50) in data set [1], in data set [3] and in data set [4] were 0.665 µM, 0.691 µM and 0.685 µM, respectively. The inhibition at 10 µM in data set [2] is less than 50%. The molecule also registered an inhibition at 1 µM in data set [5] of 2%. Also, the Ki in data set [6] was 0.148 µM.

In the case of `O=c1c2ccccc2oc2ccc(OCCCCCCN3CCCCCC3)cc12`, the values for the half-maximal inhibitory concentration (IC50) in data set [1], in data set [3] and in data set [4] were 0.385 µM, 0.308 µM and 0.605 µM, respectively. In addition, the inhibition at 10 µM in data set [2] is less than 50%. In data set [5], testing at 1 µM gave an inhibition of 3%. The molecule further yielded a Ki in data set [6] of 0.496 µM.

Consider `CC1CCN(CCCCCOc2ccc3oc4ccc(Cl)cc4c(=O)c3c2)CC1`, for which the IC50 in data set [1] was 0.673 µM; in data set [3], 0.386 µM; in data set [4], 1.1 µM. In addition, the inhibition at 10 µM in data set [2] is less than 50%. Besides, the inhibition at 1 µM in data set [5] is 5%. Further, in data set [6], affinity was put at a Ki of 0.14 µM.

With `O=c1c2ccc(Cl)cc2oc2ccc(OCCCCCCN3CCCCCC3)cc12`, the 50% inhibitory concentration (IC50) in data set [1] was 0.975 µM; in data set [3], 0.235 µM; in data set [4], 1.24 µM. Moreover, the inhibition at 10 µM in data set [2] is less than 50%. For the same molecule, testing at 1 µM in data set [5] gave an inhibition of 5%. This molecule also had a Ki in data set [6] of 0.602 µM.

In the case of `O=c1c2ccc(Cl)cc2oc2ccc(OCCCCCN3CCCCCC3)cc12`, the IC50 in data set [1] was found to be 2.11 µM; in data set [3] it was 0.314 µM; in data set [4], 1.28 µM. The inhibition at 10 µM in data set [2] is less than 50%. This molecule also registered an inhibition at 1 µM in data set [5] of 2%. Also, the affinity in data set [6] corresponds to a Ki of 0.086 µM.

For the molecule `CC1CCN(CCCCCCOc2ccc3oc4ccccc4c(=O)c3c2)CC1`, the IC50 turned out to be 0.856 µM in data set [1], 0.406 µM in data set [3] and 0.965 µM in data set [4]. In addition, in data set [2], the inhibition at 10 µM is less than 50%. The molecule also registered an inhibition at 1 µM in data set [5] of 6%. The molecule further showed a Ki in data set [6] of 0.097 µM.

With `CC1CCCN(CCCCCOc2ccc3oc4cc(Cl)ccc4c(=O)c3c2)C1` (stereo not drawn), the IC50 in data set [1] came to 1.98 µM; in data set [3], 0.353 µM; in data set [4], 2.83 µM. In addition, in data set [2], the inhibition at 10 µM was less than 50%. In addition, in data set [5], the inhibition at 1 µM worked out at 11%. For the same molecule, affinity in data set [6] was put at a Ki of 0.056 µM.

Take `O=c1c2ccc(Cl)cc2oc2ccc(OCCCCCCN3CCCCC3)cc12`: the IC50 in data set [1] stood at 0.946 µM; in data set [3] it was 0.378 µM; in data set [4] it was 1.98 µM. Also, in data set [2], the inhibition at 10 µM is less than 50%. In data set [5], this molecule yielded an inhibition at 1 µM of 8%. The Ki in data set [6] turned out to be 0.203 µM.

Turning to `O=c1c2ccccc2oc2ccc(OCCCCCCN3CCCCC3)cc12`, the IC50 in data set [1] came to 0.939 µM; in data set [3] it was 0.358 µM; in data set [4] it was 2 µM. Moreover, in data set [2], the inhibition at 10 µM was less than 50%. Further, the inhibition at 1 µM in data set [5] was 4%. Moreover, the Ki in data set [6] came to 1.06 µM.

In turn, `C#CCN(C)CCCOc1ccc(Cl)cc1Cl` [CLORGILINE] returned an inhibition at 1 µM in data set [5] of 1.8%.

Take `CC1CCCN(CCCCCCOc2ccc3oc4ccc(Cl)cc4c(=O)c3c2)C1` (stereo not drawn): the IC50 in data set [1] was found to be 0.717 µM; in data set [3], 0.307 µM; in data set [4] it was 1.47 µM. Moreover, the inhibition at 10 µM in data set [2] was less than 50%. The molecule also returned an inhibition at 1 µM in data set [5] of 28%. The Ki in data set [6] amounted to 0.436 µM.

As for `CC1CCN(CCCCCOc2ccc3oc4cc(Cl)ccc4c(=O)c3c2)CC1`, the IC50 came to 1.54 µM in data set [1], 0.421 µM in data set [3] and 1.61 µM in data set [4]. Besides, in data set [2], the inhibition at 10 µM is less than 50%. The inhibition at 1 µM in data set [5] worked out at 22%. For the same molecule, the Ki in data set [6] was 0.448 µM.
